Experimental data published in US12161115B2, “Herbicidal compounds” (SYNGENTA CROP PROTECTION AG, priority 2019, dated 2024).

Assays:
Assay type in all cases: in vivo
Conditions in all cases: 250 g/Ha, evaluated after 13 days
[1] = system: Alopecurus myosuroides (ALOMY); test: Pre-emergence herbicidal glasshouse test
Protocol: (§1) Seeds of a variety of test species are sown in standard soil in pots (Lolium perenne (LOLPE), Setaria faberi (SETFA), Alopecurus myosuroides (ALOMY), Echinochloa crus-galli (ECHCG), Avena fatua (AVEFA)). After cultivation for one day (pre-emergence) or after 8 days cultivation (post-emergence) under controlled conditions in a glasshouse (at 24/16° C., day/night; 14 hours light; 65% humidity), the plants are sprayed with an aqueous spray solution derived from the formulation of the technical active ingredient in acetone/water (50:50) solution containing 0.5% Tween 20 (polyoxyethelyene sorbitan monolaurate, CAS RN 9005-64-5). Compounds are applied at 250 g/h. The test plants are then grown in a glasshouse under controlled conditions in a glasshouse (at 24/16° C., day/night; 14 hours light; 65% humidity) and watered twice daily. After 13 days for pre and post-emergence, the test is evaluated for the percentage damage caused to the plant. The biological activities are shown in the following table on a five point scale (5=80-100%; 4=60-79%; 3=40-59%; 2=20-39%; 1=0-19%). NT=not tested.

[2] = system: Avena fatua (AVEFA); test: Pre-emergence herbicidal glasshouse test
Protocol: as §1

[3] = system: Echinochloa crus-galli (ECHCG); test: Pre-emergence herbicidal glasshouse test
Protocol: as §1

[4] = system: Lolium perenne (LOLPE); test: Pre-emergence herbicidal glasshouse test
Protocol: as §1

[5] = system: Setaria faberi (SETFA); test: Pre-emergence herbicidal glasshouse test
Protocol: as §1

[6] = system: Alopecurus myosuroides (ALOMY); test: Post-emergence herbicidal glasshouse test
Protocol: as §1

[7] = system: Avena fatua (AVEFA); test: Post-emergence herbicidal glasshouse test
Protocol: as §1

[8] = system: Echinochloa crus-galli (ECHCG); test: Post-emergence herbicidal glasshouse test
Protocol: as §1

[9] = system: Lolium perenne (LOLPE); test: Post-emergence herbicidal glasshouse test
Protocol: as §1

[10] = system: Setaria faberi (SETFA); test: Post-emergence herbicidal glasshouse test
Protocol: as §1

`CC#Cc1cc(C)c(C2C(=O)CC3(CCN(C(=O)/C(=N\OC)C(C)(C)C)CC3)CC2=O)c(C)c1` [Compound A7] was tested, and the “percentage damage caused to the plant, five point scale, ALOMY” value (from here on “percentage damage caused … ALOMY”) [1] was 4 (4=60-79%), the “percentage damage caused to the plant, five point scale, AVEFA” value (from here on “percentage damage caused … AVEFA”) [2] was 2 (2=20-39%) and the “percentage damage caused to the plant, five point scale, ECHCG” value (from here on “percentage damage caused … ECHCG”) [3] was 5 (5=80-100%). For the same compound, the “percentage damage caused to the plant, five point scale, LOLPE” value (from here on “percentage damage caused … LOLPE”) [4] was 5 (5=80-100%), the “percentage damage caused to the plant, five point scale, SETFA” value (from here on “percentage damage caused … SETFA”) [5] was 5 (5=80-100%) and the “percentage damage caused … ALOMY” value [6] was 4 (4=60-79%). The “percentage damage caused … AVEFA” value [7] was 3 (3=40-59%), the “percentage damage caused … ECHCG” value [8] was 5 (5=80-100%) and the “percentage damage caused … LOLPE” value [9] was 5 (5=80-100%). For the same compound, the “percentage damage caused … SETFA” value [10] was 5 (5=80-100%).

`CC#Cc1cc(C)c(C2C(=O)CC3(CCN(C(=O)/C(C)=N/Oc4ccccn4)CC3)CC2=O)c(C)c1` [Compound A6, 9-(2,6-dimethyl-4-prop-1-ynyl-phenyl)-3-[(2E)-2-(2-pyridyloxyimino)propanoyl]-3-azaspiro[5.5]undecane-8,10-dione] was tested, and the “percentage damage caused … ALOMY” value [1] was 5 (5=80-100%), the “percentage damage caused … AVEFA” value [2] was 5 (5=80-100%) and the “percentage damage caused … ECHCG” value [3] was 5 (5=80-100%). The “percentage damage caused … LOLPE” value [4] was 5 (5=80-100%), the “percentage damage caused … SETFA” value [5] was 5 (5=80-100%) and the “percentage damage caused … ALOMY” value [6] was 5 (5=80-100%). For the same compound, the “percentage damage caused … AVEFA” value [7] was 5 (5=80-100%), the “percentage damage caused … ECHCG” value [8] was 5 (5=80-100%) and the “percentage damage caused … LOLPE” value [9] was 5 (5=80-100%). The “percentage damage caused … SETFA” value [10] was 5 (5=80-100%).

In the case of `CC#Cc1cc(C)c(C2C(=O)CC3(CCN(C(=O)/C(C)=N/OC4CCOCC4)CC3)CC2=O)c(C)c1` [Compound A9], the “percentage damage caused … ALOMY” value [1] is reported as 5 (5=80-100%), the “percentage damage caused … AVEFA” value [2] is reported as 2 (2=20-39%) and the “percentage damage caused … ECHCG” value [3] is reported as 3 (3=40-59%). The “percentage damage caused … LOLPE” value [4] was 3 (3=40-59%), the “percentage damage caused … SETFA” value [5] was 4 (4=60-79%) and the “percentage damage caused … ALOMY” value [6] was 5 (5=80-100%). The “percentage damage caused … AVEFA” value [7] was 5 (5=80-100%), the “percentage damage caused … ECHCG” value [8] was 5 (5=80-100%) and the “percentage damage caused … LOLPE” value [9] was 4 (4=60-79%). For the same compound, the “percentage damage caused … SETFA” value [10] was 5 (5=80-100%).

`CC#Cc1cc(C)c(C2C(=O)CC3(CCN(C(=O)C(C)=NOCCOC)CC3)CC2=O)c(C)c1` [Compound A11] was tested, and the “percentage damage caused … ALOMY” value [1] was 5 (5=80-100%), the “percentage damage caused … AVEFA” value [2] was 3 (3=40-59%) and the “percentage damage caused … ECHCG” value [3] was 5 (5=80-100%). The “percentage damage caused … LOLPE” value [4] was 5 (5=80-100%), the “percentage damage caused … SETFA” value [5] was 5 (5=80-100%) and the “percentage damage caused … ALOMY” value [6] was 5 (5=80-100%). The “percentage damage caused … AVEFA” value [7] was 5 (5=80-100%), the “percentage damage caused … ECHCG” value [8] was 5 (5=80-100%) and the “percentage damage caused … LOLPE” value [9] was 5 (5=80-100%). For the same compound, the “percentage damage caused … SETFA” value [10] was 5 (5=80-100%).

In the case of `CC#Cc1cc(C)c(C2C(=O)CC3(CCN(C(=O)/C(C)=N/O)CC3)CC2=O)c(C)c1` [Compound A4], the “percentage damage caused … ALOMY” value [1] is reported as 5 (5=80-100%), the “percentage damage caused … AVEFA” value [2] is reported as 5 (5=80-100%) and the “percentage damage caused … ECHCG” value [3] is reported as 5 (5=80-100%). For the same compound, the “percentage damage caused … LOLPE” value [4] was 5 (5=80-100%), the “percentage damage caused … SETFA” value [5] was 5 (5=80-100%) and the “percentage damage caused … ALOMY” value [6] was 5 (5=80-100%). The “percentage damage caused … AVEFA” value [7] was 5 (5=80-100%), the “percentage damage caused … ECHCG” value [8] was 5 (5=80-100%) and the “percentage damage caused … LOLPE” value [9] was 5 (5=80-100%). The “percentage damage caused … SETFA” value [10] was 5 (5=80-100%).

`CC#Cc1cc(C)c(C2C(=O)CC3(CCN(C(=O)C(C)=NOCC#N)CC3)CC2=O)c(C)c1` [Compound A10] was tested, and the “percentage damage caused … ALOMY” value [1] was 4 (4=60-79%), the “percentage damage caused … AVEFA” value [2] was 1 (1=0-19%) and the “percentage damage caused … ECHCG” value [3] was 4 (4=60-79%). For the same compound, the “percentage damage caused … LOLPE” value [4] was 1 (1=0-19%), the “percentage damage caused … SETFA” value [5] was 4 (4=60-79%) and the “percentage damage caused … ALOMY” value [6] was 5 (5=80-100%). The “percentage damage caused … AVEFA” value [7] was 5 (5=80-100%), the “percentage damage caused … ECHCG” value [8] was 5 (5=80-100%) and the “percentage damage caused … LOLPE” value [9] was 5 (5=80-100%). For the same compound, the “percentage damage caused … SETFA” value [10] was 5 (5=80-100%).

With `CC#Cc1cc(C)c(C2C(=O)CC3(CCN(C(=O)C(C)=NOCC)CC3)CC2=O)c(C)c1` [Compound A2] the “percentage damage caused … ALOMY” value [1] was 5 (5=80-100%), the “percentage damage caused … AVEFA” value [2] was 5 (5=80-100%) and the “percentage damage caused … ECHCG” value [3] was 5 (5=80-100%). For the same compound, the “percentage damage caused … LOLPE” value [4] was 5 (5=80-100%), the “percentage damage caused … SETFA” value [5] was 5 (5=80-100%) and the “percentage damage caused … ALOMY” value [6] was 5 (5=80-100%). The “percentage damage caused … AVEFA” value [7] was 5 (5=80-100%), the “percentage damage caused … ECHCG” value [8] was 5 (5=80-100%) and the “percentage damage caused … LOLPE” value [9] was 5 (5=80-100%). For the same compound, the “percentage damage caused … SETFA” value [10] was 5 (5=80-100%).

In the case of `CC#Cc1cc(C)c(C2C(=O)CC3(CCN(C(=O)/C(C)=N\O)CC3)CC2=O)c(C)c1` [Compound A5], the “percentage damage caused … ALOMY” value [1] is reported as 4 (4=60-79%), the “percentage damage caused … AVEFA” value [2] is reported as 5 (5=80-100%) and the “percentage damage caused … ECHCG” value [3] is reported as 5 (5=80-100%). For the same compound, the “percentage damage caused … LOLPE” value [4] was 5 (5=80-100%), the “percentage damage caused … SETFA” value [5] was 5 (5=80-100%) and the “percentage damage caused … ALOMY” value [6] was 5 (5=80-100%). The “percentage damage caused … AVEFA” value [7] was 5 (5=80-100%), the “percentage damage caused … ECHCG” value [8] was 5 (5=80-100%) and the “percentage damage caused … LOLPE” value [9] was 5 (5=80-100%). The “percentage damage caused … SETFA” value [10] was 5 (5=80-100%).
